Test system: MDA-MB-468 spheroids with HUVEC/MSC, viability
Assay: Anticancer human tumor MDA-MB-468 cell line growth inhibition [PI3K];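 note: spheroids exposed to agents for seven days before readout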;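 for viability, T/C: 100% = DMSO vehicle control viability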
Conditions: for IC50: curve of first compound; for viability, T/C: stronger effect = lower value; active = viability on the fitted dose curve at most 10% of control; inactive = the rest
Summary of the method: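 Multi-cell spheroids combine tumor cells with HUVEC and human MSCs, treated with targeted agents alone or with inavolisib, alpelisib, duvelisib or copanlisib. Concentrations fall in half-log steps from at or near clinical Cmax, or from 10 microM where Cmax is unknown; viability read-out.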

[1] = second compound 0.00316 µM, first compound 0.000316 µM
[2] = second compound 0.00316 µM, first compound 0.001 µM
[3] = second compound 0.00316 µM, first compound 0.00316 µM
[4] = second compound 0.00316 µM, first compound 0.01 µM
[5] = second compound 0.00316 µM, first compound 0.0316 µM
[6] = second compound 0.00316 µM, first compound 0.1 µM
[7] = second compound 0.01 µM, first compound 0.000316 µM
[8] = second compound 0.01 µM, first compound 0.001 µM
[9] = second compound 0.01 µM, first compound 0.00316 µM
[10] = second compound 0.01 µM, first compound 0.01 µM
[11] = second compound 0.01 µM, first compound 0.0316 µM
[12] = second compound 0.01 µM, first compound 0.1 µM
[13] = second compound 0.0316 µM, first compound 0.000316 µM
[14] = second compound 0.0316 µM, first compound 0.001 µM
[15] = second compound 0.0316 µM, first compound 0.00316 µM
[16] = second compound 0.0316 µM, first compound 0.01 µM
[17] = second compound 0.0316 µM, first compound 0.0316 µM
[18] = second compound 0.0316 µM, first compound 0.1 µM
[19] = second compound 0.1 µM, first compound 0.000316 µM
[20] = second compound 0.1 µM, first compound 0.001 µM
[21] = second compound 0.1 µM, first compound 0.00316 µM
[22] = second compound 0.1 µM, first compound 0.01 µM
[23] = second compound 0.1 µM, first compound 0.0316 µM
[24] = second compound 0.1 µM, first compound 0.1 µM
[25] = second compound 0.316 µM, first compound 0.000316 µM
[26] = second compound 0.316 µM, first compound 0.001 µM
[27] = second compound 0.316 µM, first compound 0.00316 µM
[28] = second compound 0.316 µM, first compound 0.01 µM
[29] = second compound 0.316 µM, first compound 0.0316 µM
[30] = second compound 0.316 µM, first compound 0.1 µM
[31] = second compound 1 µM, first compound 0.000316 µM
[32] = second compound 1 µM, first compound 0.001 µM
[33] = second compound 1 µM, first compound 0.00316 µM
[34] = second compound 1 µM, first compound 0.01 µM
[35] = second compound 1 µM, first compound 0.0316 µM
[36] = second compound 1 µM, first compound 0.1 µM

CC(=O)c1c(C)c2cnc(Nc3ccc(N4CCNCC4)cn3)nc2n(C2CCCC2)c1=O + COc1c(OCCCN2CCOCC2)ccc2c3n(c(=NC(=O)c4cnc(N)nc4)nc12)CCN3
> 0.1 µM: IC50 (second compound 0.00316 µM) | IC50 (second compound 0.01 µM) | IC50 (second compound 0.0316 µM) | IC50 (second compound 0.1 µM)
inactive: viability, T/C [1] 105% | viability, T/C [2] 92.6% | viability, T/C [3] 92.5% | viability, T/C [4] 99.7% | viability, T/C [5] 90.1% | viability, T/C [6] 91.5% | viability, T/C [7] 85.7% | viability, T/C [8] 84% | viability, T/C [9] 81.2% | viability, T/C [10] 86.2% | viability, T/C [11] 86.8% | viability, T/C [12] 110% | viability, T/C [13] 64.1% | viability, T/C [14] 67.5% | viability, T/C [15] 72.2% | viability, T/C [16] 79.8% | viability, T/C [17] 83.2% | viability, T/C [18] 86.4% | viability, T/C [19] 59.5% | viability, T/C [20] 62.8% | viability, T/C [21] 58.8% | viability, T/C [22] 61.5% | viability, T/C [23] 64.1% | viability, T/C [24] 53.2% | viability, T/C [25] 26.6% | viability, T/C [26] 25.5% | viability, T/C [27] 27.1% | viability, T/C [28] 26.3% | viability, T/C [29] 27.1% | viability, T/C [30] 27.9%
active: viability, T/C [31] 3.5% | viability, T/C [32] 3.63% | viability, T/C [33] 2.3% | viability, T/C [34] 3.4% | viability, T/C [35] 2.94% | viability, T/C [36] 2.61%
< 0.000316 µM: IC50 (second compound 0.316 µM) | IC50 (second compound 1 µM)

CC(C)n1nc(-c2ccc3oc(N)nc3c2)c2c(N)ncnc21 + COc1c(OCCCN2CCOCC2)ccc2c3n(c(=NC(=O)c4cnc(N)nc4)nc12)CCN3
0.032 µM: IC50 (second compound 0.0316 µM)
active: viability, T/C [24] 7.66% | viability, T/C [30] 3.12% | viability, T/C [31] 3.84% | viability, T/C [32] 3.57% | viability, T/C [33] 2.98% | viability, T/C [34] 3% | viability, T/C [35] 1.87% | viability, T/C [36] 0.59%
< 0.000316 µM: IC50 (second compound 0.316 µM) | IC50 (second compound 1 µM)
0.0104 µM: IC50 (second compound 0.1 µM)
inactive: viability, T/C [1] 81.1% | viability, T/C [2] 87% | viability, T/C [3] 95.5% | viability, T/C [4] 88.3% | viability, T/C [5] 52.3% | viability, T/C [6] 18.8% | viability, T/C [7] 77.2% | viability, T/C [8] 83.5% | viability, T/C [9] 87.7% | viability, T/C [10] 81.1% | viability, T/C [11] 61.1% | viability, T/C [12] 14.9% | viability, T/C [13] 75.6% | viability, T/C [14] 84.4% | viability, T/C [15] 80.9% | viability, T/C [16] 68% | viability, T/C [17] 51.2% | viability, T/C [18] 11.6% | viability, T/C [19] 49.8% | viability, T/C [20] 63.6% | viability, T/C [21] 53.7% | viability, T/C [22] 49.9% | viability, T/C [23] 36% | viability, T/C [25] 28.2% | viability, T/C [26] 25.8% | viability, T/C [27] 28.1% | viability, T/C [28] 24.9% | viability, T/C [29] 15.4%
0.0342 µM: IC50 (second compound 0.00316 µM)
0.0417 µM: IC50 (second compound 0.01 µM)

Source: PubChem BioAssay AID1963960 (Molecular Pharmacology Branch, DTP, NCI, 2024)
